In patent publication US20260207563A1, “UREA COMPOUNDS AS ACTIVATORS OF POTASSIUM CHANNELS KV7.2/7.3 USEFUL IN THE TREATMENT OF CNS AND PNS DISORDERS” (ANGELINI PHARMA S.P.A., priority 2022, published 2026):

Assays:
Assay type in all cases: cell-based
[1] = biological target: T1, homomeric KV7.4 channel (KCNQ4) (Homo sapiens, UniProt P56696); assay: Automated patch-clamp (Qube) counter-screening assay against KV7.4 channel; settings: CHO-K1 cells expressing KV7.4; class by maximal shift in the Vhalf at 30 μM
T1 construct: host or cells: CHO-K1
Procedure, shortened: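 EC50 and maximal shift in half-activation voltage come from 4-parameter logistic fits of mean Vhalf shifts. The series had ten 1-in-3 concentrations, highest 30 μM, each tested in quadruplicate. Recordings used automated Qube patch clamp on a stable CHO-K1 line expressing KCNQ4, and selectivity was judged from the 30 μM Vhalf shift.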

[2] = biological target: T2, heteromeric KV7.3/KV7.5 channel (KCNQ3, KCNQ5) (Homo sapiens, UniProt O43525+Q9NR82); assay: Automated patch-clamp counter-screening against KV7.3/KV7.5 channel; settings: HEK293 cells expressing Kv7.3/KV7.5; class by maximal shift in the Vhalf at 30 μM
T2 construct: host or cells: HEK293
Procedure, shortened: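 Potency came from a 4-parameter logistic fit of mean voltage-of-half-activation shifts, yielding EC50 and maximal shift; selectivity was judged on the shift at 30 μM. Compounds were applied at ten 3-fold dilutions from 30 μM in quadruplicate to HEK293 cells stably carrying Kv7.3 with tet-inducible Kv7.5.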

[3] = biological target: T3, heteromeric KV7.2/KV7.3 channels (KCNQ2, KCNQ3) (Homo sapiens, UniProt O43525+O43526); assay: Automated patch-clamp (Sophion Qube 384) potency assay against KV7.2/KV7.3 channels; settings: CHO-K1/Kv7.2/Kv7.3 cells; for EC50: EC50 from concentration-response of shift in Vhalf, 10 concentrations up to 30 μM, read-out: Kv7.2/7.3 EC50; for Kv7.2/7.3 ΔV1/2: maximal shift in the Vhalf from the top of the curve
T3 construct: expressed in transfected cells; host or cells: CHO-K1
Procedure, shortened: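 Activator potency: EC50 from 4-parameter logistic fit of mean Vhalf shift across ten 1-in-3 dilutions starting at 30 μM (n=4), with DMSO (typically 0.3%) control. Currents recorded by leak-subtracted whole-cell clamp of stable CHO-K1 KV7.2/KV7.3 cells, held at −80 mV, stepped −100 to +20 mV then 0 mV tails.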

Row | Compound | EC50 [3] | Kv7.2/7.3 ΔV1/2 [3] | Kv7.4 selectivity criteria [1] | Kv7.3/7.5 selectivity criteria [2]
1 | O=C(NCc1ccnc(OCC(F)(F)F)c1)Nc1cccc2c1OCCC2 [Compound 140] | 3100 nM | 25.85 mV | A (Selective compounds showed Kv7.4 and/or Kv7.3/7.5 ΔV1/2 equal to or lower than 15 mV (letter A in table 3)) | A (Selective compounds showed Kv7.4 and/or Kv7.3/7.5 ΔV1/2 equal to or lower than 15 mV (letter A in table 3))
2 | O=C(NCc1ccnc(OCC(F)(F)F)c1)NCC1Cc2ccccc2C1 [Compound 145] | 1610 nM | 23.71 mV | A (Selective compounds showed Kv7.4 and/or Kv7.3/7.5 ΔV1/2 equal to or lower than 15 mV (letter A in table 3)) | A (Selective compounds showed Kv7.4 and/or Kv7.3/7.5 ΔV1/2 equal to or lower than 15 mV (letter A in table 3))
3 | O=C(NCc1ccnc(OCC(F)(F)F)c1)NC1(CO)Cc2ccccc2C1 [Compound 146] | 6540 nM | 30.86 mV | B (Non-selective compounds showed Kv7.4 and/or Kv7.3/7.5 ΔV1/2 higher than 15 mV (letter B in table 3)) | B (Non-selective compounds showed Kv7.4 and/or Kv7.3/7.5 ΔV1/2 higher than 15 mV (letter B in table 3))
4 | COCC1(NC(=O)NCc2ccnc(OCC(F)(F)F)c2)Cc2ccccc2C1 [Compound 148] | 1820 nM | 15.43 mV | A (Selective compounds showed Kv7.4 and/or Kv7.3/7.5 ΔV1/2 equal to or lower than 15 mV (letter A in table 3)) | A (Selective compounds showed Kv7.4 and/or Kv7.3/7.5 ΔV1/2 equal to or lower than 15 mV (letter A in table 3))
5 | O=C(NCc1ccnc(OCC(F)(F)F)c1)NC1CSc2ccccc2C1 (stereo not shown) [Compound 149] | 618 nM | 30.8 mV | A (Selective compounds showed Kv7.4 and/or Kv7.3/7.5 ΔV1/2 equal to or lower than 15 mV (letter A in table 3)) | A (Selective compounds showed Kv7.4 and/or Kv7.3/7.5 ΔV1/2 equal to or lower than 15 mV (letter A in table 3))
6 | O=C(NCc1ccnc(OCC(F)(F)F)c1)N[C@H]1c2ccccc2C[C@H]1CO [Compound 151] | 11200 nM | 23.51 mV | A (Selective compounds showed Kv7.4 and/or Kv7.3/7.5 ΔV1/2 equal to or lower than 15 mV (letter A in table 3)) | A (Selective compounds showed Kv7.4 and/or Kv7.3/7.5 ΔV1/2 equal to or lower than 15 mV (letter A in table 3))
7 | O=C(NCc1ccnc(OC(F)F)c1)N[C@@H]1CCc2ccc(F)cc21 [Compound 153] | 1600 nM | 47.43 mV | B (Non-selective compounds showed Kv7.4 and/or Kv7.3/7.5 ΔV1/2 higher than 15 mV (letter B in table 3)) | B (Non-selective compounds showed Kv7.4 and/or Kv7.3/7.5 ΔV1/2 higher than 15 mV (letter B in table 3))
8 | O=C(NCc1ccnc(OCC(F)(F)F)c1)Nc1cccc2c1CCC2 [Compound 154] | 617 nM | 24.51 mV | A (Selective compounds showed Kv7.4 and/or Kv7.3/7.5 ΔV1/2 equal to or lower than 15 mV (letter A in table 3)) | A (Selective compounds showed Kv7.4 and/or Kv7.3/7.5 ΔV1/2 equal to or lower than 15 mV (letter A in table 3))
9 | O=C(NCc1ccnc(OCC(F)(F)F)c1)NCC1CCc2ccccc21 (stereo not shown) [Compound 157] | 4010 nM | 18.8 mV | A (Selective compounds showed Kv7.4 and/or Kv7.3/7.5 ΔV1/2 equal to or lower than 15 mV (letter A in table 3)) | A (Selective compounds showed Kv7.4 and/or Kv7.3/7.5 ΔV1/2 equal to or lower than 15 mV (letter A in table 3))

More lines, main results first:

Row | EC50 [3] | Kv7.2/7.3 ΔV1/2 [3] | Compound | Kv7.4 selectivity criteria [1] | Kv7.3/7.5 selectivity criteria [2]
10 | 849 nM | 22.07 mV | O=C(NCc1ccnc(OCC(F)(F)F)c1)NC1CCc2ccccc21 (stereo not shown) [Compound 137] | B (Non-selective compounds showed Kv7.4 and/or Kv7.3/7.5 ΔV1/2 higher than 15 mV (letter B in table 3)) | B (Non-selective compounds showed Kv7.4 and/or Kv7.3/7.5 ΔV1/2 higher than 15 mV (letter B in table 3))
11 | 195 nM | 17.98 mV | O=C(NCc1ccnc(OCC(F)(F)F)c1)N[C@H]1CCCc2ccccc21 [Compound 138] | A (Selective compounds showed Kv7.4 and/or Kv7.3/7.5 ΔV1/2 equal to or lower than 15 mV (letter A in table 3)) | A (Selective compounds showed Kv7.4 and/or Kv7.3/7.5 ΔV1/2 equal to or lower than 15 mV (letter A in table 3))
12 | 2240 nM | 34.89 mV | CC1CC(NC(=O)NCc2ccnc(OCC(F)(F)F)c2)c2ccccc21 (stereo not shown) [Compound 139] | A (Selective compounds showed Kv7.4 and/or Kv7.3/7.5 ΔV1/2 equal to or lower than 15 mV (letter A in table 3)) | A (Selective compounds showed Kv7.4 and/or Kv7.3/7.5 ΔV1/2 equal to or lower than 15 mV (letter A in table 3))
13 | 285 nM | 17.59 mV | O=C(NCc1ccnc(OCC(F)(F)F)c1)NCC1CCCc2ccccc21 (stereo not shown) [Compound 141] | A (Selective compounds showed Kv7.4 and/or Kv7.3/7.5 ΔV1/2 equal to or lower than 15 mV (letter A in table 3)) | A (Selective compounds showed Kv7.4 and/or Kv7.3/7.5 ΔV1/2 equal to or lower than 15 mV (letter A in table 3))
14 | 657 nM | 16.4 mV | O=C(NCc1ccnc(OCC(F)(F)F)c1)N[C@H]1CCCOc2ccccc21 [Compound 142] | A (Selective compounds showed Kv7.4 and/or Kv7.3/7.5 ΔV1/2 equal to or lower than 15 mV (letter A in table 3)) | A (Selective compounds showed Kv7.4 and/or Kv7.3/7.5 ΔV1/2 equal to or lower than 15 mV (letter A in table 3))
15 | 3970 nM | 22.37 mV | O=C(NCc1ccnc(OCC(F)(F)F)c1)N[C@H]1CCc2c(Cl)cccc21 [Compound 143] | A (Selective compounds showed Kv7.4 and/or Kv7.3/7.5 ΔV1/2 equal to or lower than 15 mV (letter A in table 3)) | B (Non-selective compounds showed Kv7.4 and/or Kv7.3/7.5 ΔV1/2 higher than 15 mV (letter B in table 3))
16 | 2680 nM | 23.26 mV | O=C(NCc1ccnc(OCC(F)(F)F)c1)NC1CCc2sccc21 (stereo not shown) [Compound 144] | A (Selective compounds showed Kv7.4 and/or Kv7.3/7.5 ΔV1/2 equal to or lower than 15 mV (letter A in table 3)) | A (Selective compounds showed Kv7.4 and/or Kv7.3/7.5 ΔV1/2 equal to or lower than 15 mV (letter A in table 3))
17 | 1890 nM | 15.93 mV | O=C(NCc1ccnc(OCC(F)(F)F)c1)NC1COc2ccc(F)cc21 (stereo not shown) [Compound 147] | A (Selective compounds showed Kv7.4 and/or Kv7.3/7.5 ΔV1/2 equal to or lower than 15 mV (letter A in table 3)) | A (Selective compounds showed Kv7.4 and/or Kv7.3/7.5 ΔV1/2 equal to or lower than 15 mV (letter A in table 3))
18 | 1310 nM | 30.15 mV | O=C(NCc1ccnc(OCC(F)(F)F)c1)N[C@@H]1CCCOc2ccccc21 [Compound 150] | B (Non-selective compounds showed Kv7.4 and/or Kv7.3/7.5 ΔV1/2 higher than 15 mV (letter B in table 3)) | A (Selective compounds showed Kv7.4 and/or Kv7.3/7.5 ΔV1/2 equal to or lower than 15 mV (letter A in table 3))
19 | 1350 nM | 36.08 mV | O=C(NCc1ccnc(OCC(F)(F)F)c1)NC1CCSc2ccccc21 (stereo not shown) [Compound 152] | B (Non-selective compounds showed Kv7.4 and/or Kv7.3/7.5 ΔV1/2 higher than 15 mV (letter B in table 3)) | B (Non-selective compounds showed Kv7.4 and/or Kv7.3/7.5 ΔV1/2 higher than 15 mV (letter B in table 3))
20 | 9460 nM | 30.26 mV | O=C(NCc1ccnc(OCC(F)(F)F)c1)N[C@H]1c2ccccc2C[C@H]1O [Compound 155] | B (Non-selective compounds showed Kv7.4 and/or Kv7.3/7.5 ΔV1/2 higher than 15 mV (letter B in table 3)) | B (Non-selective compounds showed Kv7.4 and/or Kv7.3/7.5 ΔV1/2 higher than 15 mV (letter B in table 3))
21 | 1850 nM | 55.46 mV | O=C(NCc1ccnc(OCC(F)(F)F)c1)N[C@@H]1CCCc2ccccc21 [Compound 156] | B (Non-selective compounds showed Kv7.4 and/or Kv7.3/7.5 ΔV1/2 higher than 15 mV (letter B in table 3)) | B (Non-selective compounds showed Kv7.4 and/or Kv7.3/7.5 ΔV1/2 higher than 15 mV (letter B in table 3))
22 | 2550 nM | 31.18 mV | N#Cc1cccc2c1CC[C@H]2NC(=O)NCc1ccnc(OCC(F)(F)F)c1 [Compound 158] | B (Non-selective compounds showed Kv7.4 and/or Kv7.3/7.5 ΔV1/2 higher than 15 mV (letter B in table 3)) | B (Non-selective compounds showed Kv7.4 and/or Kv7.3/7.5 ΔV1/2 higher than 15 mV (letter B in table 3))
